Measurements taken from US7772241B2, “Variolin derivatives and their use as antitumor agents” (Pharma Mar S.A., priority 2001, dated 2010).
Like-named read-outs stand apart in the source and are kept apart here.

How the values were obtained:
SK-OV-3 = assay: Inhibition of cells growth by colorimetric (SRB) assay, SK-OV-3
Text: (§1) The finality of these assays is to interrupt the growth of a “in vitro” tumor cell culture by means a continued exhibition of the cells to the sample to be testing.
(§2) This form of the assay employs 96 well cell culture microplates of 9 mm diameter (Faircloth, 1988; Mosmann, 1983). Most of the cell lines are obtained from American Type Culture Collection (ATCC) derived from different human cancer types.
(§3) Cells are maintained in RPMI 1640 10% FBS, supplemented with 0.1 g/l penicillin and 0.1 g/l streptomycin sulphate and then incubated at 37° C., 5% CO2 and 98% humidity. For the experiments, cells were harvested from subconfluent cultures using trypsin and resuspended in fresh medium before plating.
(§4) Cells are seeded in 96 well microtiter plates, at 5×10^3 cells per well in aliquots of 195 μl medium, and they are allowed to attach to the plate surface by growing in drug free medium for 18 hours. Afterward, samples are added in aliquots of 5 μl in a ranging from 10 to 10^−8 μg/ml, dissolved in DMSO/EtOH/PBS (0.5:0.5:99). After 48 hours exposure, the antitumor effect are measured by the SRB methodology: cells are fixed by adding 50 μl of cold 50% (wt/vol) trichloroacetic acid (TCA) and incubating for 60 minutes at 4° C. Plates are washed with deionized water and dried. One hundred μl of SRB solution (0.4% wt/vol in 1% acetic acid) is added to each microtiter well and incubated for 10 minutes at room temperature. Unbound SRB is removed by washing with 1% acetic acid. Plates are air dried and bound stain is solubilized with Tris buffer. Optical densities are read on a automated spectrophotometric plate reader at a single wavelength of 490 nm.
(§5) The values for mean +/−SD of data from triplicate wells are calculated. Some parameters for cellular responses can be calculated: GI=growth inhibition, TGI=total growth inhibition (cytostatic effect) and LC=cell killing (cytotoxic effect).

LoVo-Dox = assay: Inhibition of cells growth by colorimetric (SRB) assay, LoVo-Dox
Text: as §1, §2, §3, §4, §5

LoVo = assay: Inhibition of cells growth by colorimetric (SRB) assay, LoVo
Text: as §1, §2, §3, §4, §5

SK-BR-3 = assay: Inhibition of cells growth by colorimetric (SRB) assay, SK-BR-3; conditions: SRB assay, 48 hours exposure
Text: as §1, §2, §3, §4, §5

DU-145 = assay: Inhibition of cells growth by colorimetric (SRB) assay, DU-145
Text: as §1, §2, §3, §4, §5

IGROV-1 = assay: Inhibition of cells growth by colorimetric (SRB) assay, IGROV-1
Text: as §1, §2, §3, §4, §5

SK-MEL-28 = assay: Inhibition of cells growth by colorimetric (SRB) assay, SK-MEL-28
Text: as §1, §2, §3, §4, §5

IGROV-ET = assay: Inhibition of cells growth by colorimetric (SRB) assay, IGROV-ET
Text: as §1, §2, §3, §4, §5

HT-29 = assay: Inhibition of cells growth by colorimetric (SRB) assay, HT-29
Text: as §1, §2, §3, §4, §5

K-562 = assay: Inhibition of cells growth by colorimetric (SRB) assay, K-562
Text: as §1, §2, §3, §4, §5

A-549 = assay: Inhibition of cells growth by colorimetric (SRB) assay, A-549
Text: as §1, §2, §3, §4, §5

PANC-1 = assay: Inhibition of cells growth by colorimetric (SRB) assay, PANC-1
Text: as §1, §2, §3, §4, §5

LNCaP = assay: Inhibition of cells growth by colorimetric (SRB) assay, LNCaP
Text: as §1, §2, §3, §4, §5

Cl.Nc1nccc(-c2c3c(N)ccnc3n3c(N)nccc23)n1 [Compound 91]
TGI SKOV-3 (SK-OV-3; SRB assay, 48 hours exposure): 2.12E−06 | GI50 (SK-OV-3; read-out: GI50 SKOV-3, SRB assay, 48 hours exposure): 0.7 µM | CC50 (SK-OV-3; read-out: LC50 SKOV-3, SRB assay, 48 hours exposure): 24.9 µM | TGI LOVO-DOX (LoVo-Dox; SRB assay, 48 hours exposure): 1.86E−06 | GI50 (LoVo-Dox; read-out: GI50 LOVO-DOX, SRB assay, 48 hours exposure): 0.774 µM | CC50 (LoVo-Dox; read-out: LC50 LOVO-DOX, SRB assay, 48 hours exposure): 7.47 µM | TGI LOVO (LoVo; SRB assay, 48 hours exposure): 8.49E−07 | GI50 (LoVo; read-out: GI50 LOVO, SRB assay, 48 hours exposure): 0.201 µM | CC50 (LoVo; read-out: LC50 LOVO, SRB assay, 48 hours exposure): 6.82 µM | TGI SK-BR-3 (SK-BR-3): 6.45E−07 | GI50 (SK-BR-3; read-out: GI50 SK-BR-3): 0.251 µM | CC50 (SK-BR-3; read-out: LC50 SK-BR-3): 1.65 µM | TGI DU-145 (DU-145; SRB assay, 48 hours exposure): 1.34E−06 | GI50 (DU-145; read-out: GI50 DU-145, SRB assay, 48 hours exposure): 0.336 µM | CC50 (DU-145; read-out: LC50 DU-145, SRB assay, 48 hours exposure): 24.9 µM | TGI IGROV (IGROV-1; SRB assay, 48 hours exposure): 9.73E−07 | GI50 (IGROV-1; read-out: GI50 IGROV, SRB assay, 48 hours exposure): 0.241 µM | CC50 (IGROV-1; read-out: LC50 IGROV, SRB assay, 48 hours exposure): 6.02 µM | TGI MEL-28 (SK-MEL-28; SRB assay, 48 hours exposure): 5.10E−07 | GI50 (SK-MEL-28; read-out: GI50 MEL-28, SRB assay, 48 hours exposure): 0.18 µM | CC50 (SK-MEL-28; read-out: LC50 MEL-28, SRB assay, 48 hours exposure): 1.25 µM | TGI IGROV-ET (IGROV-ET; SRB assay, 48 hours exposure): 1.98E−06 | GI50 (IGROV-ET; read-out: GI50 IGROV-ET, SRB assay, 48 hours exposure): 1.16 µM | CC50 (IGROV-ET; read-out: LC50 IGROV-ET, SRB assay, 48 hours exposure): 24.9 µM | TGI HT-29 (HT-29; SRB assay, 48 hours exposure): 2.49E−06 | GI50 (HT-29; read-out: GI50 HT-29, SRB assay, 48 hours exposure): 1.34 µM | CC50 (HT-29; read-out: LC50 HT-29, SRB assay, 48 hours exposure): 24.9 µM | TGI K-562 (K-562; SRB assay, 48 hours exposure): 3.78E−06 | GI50 (K-562; read-out: GI50 K-562, SRB assay, 48 hours exposure): 1.32 µM | CC50 (K-562; read-out: LC50 K-562, SRB assay, 48 hours exposure): 24.9 µM | TGI A-549 (A-549; SRB assay, 48 hours exposure): 2.09E−06 | GI50 (A-549; read-out: GI50 A-549, SRB assay, 48 hours exposure): 1.09 µM | CC50 (A-549; read-out: LC50 A-549, SRB assay, 48 hours exposure): 8.29 µM | TGI PANC-1 (PANC-1; SRB assay, 48 hours exposure): 2.44E−06 | GI50 (PANC-1; read-out: GI50 PANC-1, SRB assay, 48 hours exposure): 0.896 µM | CC50 (PANC-1; read-out: LC50 PANC-1, SRB assay, 48 hours exposure): 16.2 µM

Nc1nccc2c(-c3ccncn3)c3c(OCc4ccccc4)ccnc3n12 [Compound 98]
GI50 (SK-OV-3; Homo sapiens, SK-OV-3, 48 h, read-out: GI50 SKOV-3, SRB assay, 48 hours exposure): 10.6 µM | CC50 (SK-OV-3; Homo sapiens, SK-OV-3, 48 h, read-out: LC50 SKOV-3, SRB assay, 48 hours exposure): 27.1 µM | TGI SKOV-3 (SK-OV-3; SRB assay, 48 hours exposure): 2.19E−05 | GI50 (LNCaP; Homo sapiens, LNCaP, 48 h, read-out: GI50 LN-caP, SRB assay, 48 hours exposure): 1.85 µM | CC50 (LNCaP; Homo sapiens, LNCaP, 48 h, read-out: LC50 LN-caP, SRB assay, 48 hours exposure): 23.9 µM | TGI LN-caP (LNCaP; SRB assay, 48 hours exposure): 6.49E−06 | GI50 (LoVo-Dox; Homo sapiens, 48 h, read-out: GI50 LOVO-DOX, SRB assay, 48 hours exposure): 5.92 µM | CC50 (LoVo-Dox; Homo sapiens, 48 h, read-out: LC50 LOVO-DOX, SRB assay, 48 hours exposure): 27.1 µM | TGI LOVO-DOX (LoVo-Dox; SRB assay, 48 hours exposure): 1.42E−05 | GI50 (LoVo; Homo sapiens, LoVo, 48 h, read-out: GI50 LOVO, SRB assay, 48 hours exposure): 5.02 µM | CC50 (LoVo; Homo sapiens, LoVo, 48 h, read-out: LC50 LOVO, SRB assay, 48 hours exposure): 27.1 µM | TGI LOVO (LoVo; SRB assay, 48 hours exposure): 1.51E−05 | GI50 (DU-145; Homo sapiens, DU-145, 48 h, read-out: GI50 DU-145, SRB assay, 48 hours exposure): 5.94 µM | CC50 (DU-145; Homo sapiens, DU-145, 48 h, read-out: LC50 DU-145, SRB assay, 48 hours exposure): 27.1 µM | TGI DU-145 (DU-145; SRB assay, 48 hours exposure): 1.41E−05 | GI50 (IGROV-1; Homo sapiens, IGROV-1, 48 h, read-out: GI50 IGROV, SRB assay, 48 hours exposure): 8.96 µM | CC50 (IGROV-1; Homo sapiens, IGROV-1, 48 h, read-out: LC50 IGROV, SRB assay, 48 hours exposure): 26.8 µM | TGI IGROV (IGROV-1; SRB assay, 48 hours exposure): 1.55E−05 | GI50 (SK-MEL-28; Homo sapiens, SK-MEL-28, 48 h, read-out: GI50 MEL-28, SRB assay, 48 hours exposure): 7.52 µM | CC50 (SK-MEL-28; Homo sapiens, SK-MEL-28, 48 h, read-out: LC50 MEL-28, SRB assay, 48 hours exposure): 21.2 µM | TGI MEL-28 (SK-MEL-28; SRB assay, 48 hours exposure): 1.26E−05 | GI50 (IGROV-ET; Homo sapiens, 48 h, read-out: GI50 IGROV-ET, SRB assay, 48 hours exposure): 7.22 µM | CC50 (IGROV-ET; Homo sapiens, 48 h, read-out: LC50 IGROV-ET, SRB assay, 48 hours exposure): 20.1 µM | TGI IGROV-ET (IGROV-ET; SRB assay, 48 hours exposure): 1.21E−05 | GI50 (HT-29; Homo sapiens, HT-29, 48 h, read-out: GI50 HT-29, SRB assay, 48 hours exposure): 15.6 µM | CC50 (HT-29; Homo sapiens, HT-29, 48 h, read-out: LC50 HT-29, SRB assay, 48 hours exposure): 27.1 µM | TGI HT-29 (HT-29; SRB assay, 48 hours exposure): 2.71E−05 | GI50 (K-562; Homo sapiens, K562, 48 h, read-out: GI50 K-562, SRB assay, 48 hours exposure): 7.82 µM | CC50 (K-562; Homo sapiens, K562, 48 h, read-out: LC50 K-562, SRB assay, 48 hours exposure): 25.8 µM | TGI K-562 (K-562; SRB assay, 48 hours exposure): 1.42E−05 | GI50 (A-549; Homo sapiens, A549, 48 h, read-out: GI50 A-549, SRB assay, 48 hours exposure): 15.3 µM | CC50 (A-549; Homo sapiens, A549, 48 h, read-out: LC50 A-549, SRB assay, 48 hours exposure): 27.1 µM | TGI A-549 (A-549; SRB assay, 48 hours exposure): 2.71E−05 | GI50 (PANC-1; Homo sapiens, PANC-1, 48 h, read-out: GI50 PANC-1, SRB assay, 48 hours exposure): 5.62 µM | CC50 (PANC-1; Homo sapiens, PANC-1, 48 h, read-out: LC50 PANC-1, SRB assay, 48 hours exposure): 19 µM | TGI PANC-1 (PANC-1; SRB assay, 48 hours exposure): 1.03E−05
